Assay results as given in ChEMBL document CHEMBL1153899, “Discovery of benzothiazole derivatives as efficacious and enterocyte-specific MTP inhibitors” (Bioorg Med Chem Lett, 2009).
pIC50: −log10 of the molar value. The source made the active and inactive calls. The rule behind the calls is not given here.

Experiments:
Mus musculus [1] = test: Increase in peptide YY level in 3-day high fat diet fed C57BL/6 mouse at 10 mg/kg, po daily for 3 days; assay type: functional, organism-based; set-up: dose 10 mg/kg
Mus musculus [2] = test: Decrease in plasma triglyceride level in […] C57BL/6 mouse at 10 mg/kg, po daily for 3 days measured after 6 hrs; assay type: functional
HepG2 = test: Inhibition of apoB secretion in human HepG2 cells after 40 hrs by ELISA; assay type: functional, cell-based; details: HepG2, 40 h
[3] = Inhibition of MTP from dog liver microsomes by scintillation counting; set-up: species or system Canis lupus familiaris, Microsome
Mus musculus [4] = test: Decrease in total food intake in 3-day high fat diet fed C57BL/6 mouse at 10 mg/kg, po daily for 3 days; assay type: functional
Mus musculus [5] = test: Decrease in body weight in […] at 10 mg/kg, po daily for 3 days; assay type: functional, C57BL/6

Structure (SMILES) | Activity (Mus musculus [1]) | Activity (Mus musculus [2]) | pIC50 (HepG2) | pIC50 [3] | Activity (Mus musculus [4]) | Activity (Mus musculus [5])
COc1cccc(C(=O)Nc2ccc3nc(C(=O)N[C@H](C(=O)N(C)Cc4ccc(F)cc4)c4ccccc4)sc3c2)c1-c1ccc(C(C)(C)C)cc1 | Active | Active | 8.62 | 8.10 | Active | Active
CN(Cc1ccc(F)cc1)C(=O)[C@@H](NC(=O)c1nc2ccc(NC(=O)c3ccccc3-c3ccc(C(F)(F)F)cc3)cc2s1)c1ccccc1 |  |  | 7.76 |  |  | 
